Results on 39 compounds are retold here after ChEMBL document CHEMBL1155430, “Discovery of novel and potent benzhydryl-tropane trypanocides highly selective for Trypanosoma cruzi” (Bioorg Med Chem Lett, 2010).

Experiment [1] concerns Trypanosoma cruzi. The experiment can be described thus: Antiparasitic activity against Trypanosoma cruzi Tulahuen C2C4 amastigotes. In kind it is functional, organism-based.
Experiment [2] has as its system L6. The experiment can be described thus: Cytotoxicity against rat L6 cells. Type of experiment: cell-based.
In experiment [3] the test system is Trypanosoma brucei rhodesiense. The experiment can be described thus: Antiparasitic activity against Trypanosoma brucei rhodesiense STIB900 bloodstream form. Type of experiment: functional, organism-based.
Experiment [4] has as its system Leishmania donovani. Nature of the experiment: Antiparasitic activity against Leishmania donovani MHOM/ET/67/L82 amastigotes. In kind it is functional, organism-based.
The subject of experiment [5] is Plasmodium falciparum. Nature of the experiment: Antiparasitic activity against Plasmodium falciparum 3D7 at erythrocytic stage. Type of experiment: functional, organism-based.
Experiment [6] has as its target Trypanothione reductase (Trypanosoma cruzi, UniProt P28593). Nature of the experiment: Inhibition of Trypanosoma cruzi X10/1 recombinant trypanothione reductase assessed as increase in absorbance at 410 nm due to the formation of TNB.
A short description of experiment [7]: Selectivity index, ratio of EC50 for Trypanosoma cruzi Tulahuen C2C4 amastigotes to the EC50 for rat L6 cells.

A value given as a limit tells only on which side of the number the result lay.

Trypanothione reductase, sequence (P28593 whole entry): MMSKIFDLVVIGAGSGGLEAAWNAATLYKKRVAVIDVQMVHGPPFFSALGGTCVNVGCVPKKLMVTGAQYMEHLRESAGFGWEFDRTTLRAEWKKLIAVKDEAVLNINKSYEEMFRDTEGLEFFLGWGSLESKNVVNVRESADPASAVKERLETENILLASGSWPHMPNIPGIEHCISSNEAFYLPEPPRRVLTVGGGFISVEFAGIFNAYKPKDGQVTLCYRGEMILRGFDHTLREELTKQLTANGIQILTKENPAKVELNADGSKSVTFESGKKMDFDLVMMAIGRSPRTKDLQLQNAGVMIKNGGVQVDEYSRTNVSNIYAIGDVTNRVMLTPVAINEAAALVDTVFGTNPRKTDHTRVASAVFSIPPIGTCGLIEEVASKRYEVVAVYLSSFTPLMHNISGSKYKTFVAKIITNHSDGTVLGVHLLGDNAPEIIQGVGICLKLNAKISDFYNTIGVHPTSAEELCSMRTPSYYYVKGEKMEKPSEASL

What is called EC50 is the concentration that produces a half-maximal response. As for `CN1C2CCC1CC(=NOC(c1ccc(Cl)cc1)c1cscn1)C2` (stereo not drawn), the EC50 stood at 0.8 µM in experiment [1] and 71 µM in experiment [2].
Regarding `CN(C)CCN1C2CCC1CC(=NOC(c1ccccc1)c1ccc(Cl)cc1)C2` (stereo not drawn), the EC50 in experiment [1] was 6.9 µM; in experiment [2], 15 µM.
Consider `CN1C2CCC1CC(=NOC(c1ccc(Cl)cc1)c1cccnc1)C2` (stereo not drawn), for which the values for the EC50 in experiment [1] and in experiment [2] were 0.5 µM and more than 100 µM, respectively.
Turning to `CC(C)=NOC(c1ccccc1)c1ccc(Cl)cc1` (stereo not drawn), the EC50 in experiment [1] was more than 10 µM; in experiment [2], more than 100 µM.
Regarding `CN1C2CCC1CC(=NOC(CCc1ccc(Cl)cc1)c1ccccc1)C2` (stereo not drawn), the EC50 was 0.8 µM in experiment [1] and 16 µM in experiment [2].
For `CN1C2CCC1CC(=NOC(CCCc1ccccc1)c1ccc(Cl)cc1)C2` (stereo not drawn), in that order: 4.3 µM and 17 µM.
`CN1C2CCC1CC(=NOC(c1ccccc1)c1ccc(I)cc1)C2` (stereo not drawn): the EC50 stood at 0.04 µM in experiment [1] and 39 µM in experiment [2].
Compound `O=C(Cn1ccnc1[N+](=O)[O-])NCc1ccccc1` [BENZNIDAZOLE] gave an EC50 in experiment [1] of 1.8 µM.
Take `Nc1nc(N)nc(Nc2ccc([As]3SCC(CO)S3)cc2)n1` (stereo not drawn) [MELARSOPROL]: it took 0.017 µM to reach a half-maximal effect in experiment [3] (EC50).
With `CN1C2CCC1CC(=NOC(c1ccc(Cl)cc1)c1nccs1)C2` (stereo not drawn), the EC50 in experiment [1] is 2.3 µM; in experiment [2], more than 100 µM.
`CN1C2CCC1CC(=NOCc1ccccc1)C2`: the EC50 in experiment [1] was more than 10 µM; in experiment [2], more than 100 µM.
As for `CCCCCCCCCCCCCCCCOP(=O)([O-])OCC[N+](C)(C)C` [MILTEFOSINE], it took 0.27 µM to reach a half-maximal effect in experiment [4] (EC50).
`CN1C2CCC1CC(=NOC1c3ccccc3-c3ccccc31)C2`: the EC50 is more than 10 µM in experiment [1] and 68 µM in experiment [2].
With `CN1C2CCC1CC(=NOC(c1ccccc1)c1ccc(Cl)cc1)C2` (stereo not drawn), the EC50 was 7.5 µM in experiment [5]; more than 30 µM in experiment [4]; 0.11 µM in experiment [1]; 3 µM in experiment [3]; 36 µM in experiment [2]; 35 µM in experiment [6].
Consider `CN1C2CCC1CC(=NOC(c1ccc(Cl)cc1)c1cncs1)C2` (stereo not drawn), for which the values for the EC50 in experiment [1] and in experiment [2] were 6 µM and more than 100 µM, respectively.
Take `CN1C2CCC1CC(=NOC(c1ccccc1)c1ccccc1Cl)C2` (stereo not drawn): the EC50 came out at 6.8 µM in experiment [1] and 15 µM in experiment [2].
Regarding `CN1C2CCC1CC(=NOC(c1ccccc1)c1ccc(C#N)cc1)C2` (stereo not drawn), the values for the EC50 in experiment [1] and in experiment [2] were 0.4 µM and 53 µM, respectively.
`CN1C2CCC1CC(=NOC(Cc1ccccc1)c1ccc(Cl)cc1)C2` (stereo not drawn): the EC50 in experiment [1] turned out to be 2.1 µM; in experiment [2], 40 µM.
With `CN1CCC(=NOC(c2ccccc2)c2ccc(Cl)cc2)CC1` (stereo not drawn), the values for the EC50 in experiment [1] and in experiment [2] were 3.7 µM and 50 µM, respectively.
On to `CN1C2CCC1CC(=NOCc1ccc(Cl)cc1)C2`, for which the EC50 in experiment [1] was more than 10 µM; in experiment [2] it was more than 100 µM.
On the same counts, the results for `CN1C2CCC1CC(=NOC(c1ccccc1)c1ccc(F)cc1)C2` (stereo not drawn) are 0.8 µM and 50 µM.
Take `Clc1ccc(C(ON=C2CC3CCC(C2)N3)c2ccccc2)cc1` (stereo not drawn): the EC50 amounted to 2 µM in experiment [1] and 9.8 µM in experiment [2].
Turning to `COc1cccc(C(ON=C2CC3CCC(C2)N3C)c2ccccc2)c1` (stereo not drawn), the figures for the EC50 in experiment [1] and in experiment [2] were 2 µM and 48 µM, respectively.
In the case of `CN1C2CCC1CC(=NOC(c1ccc(Cl)cc1)c1ccc(Cl)cc1)C2`, the EC50 in experiment [1] was found to be 6 µM; in experiment [2] it was 16 µM.
Regarding `OCCN1C2CCC1CC(=NOC(c1ccccc1)c1ccc(Cl)cc1)C2` (stereo not drawn), the EC50 in experiment [1] is 7.8 µM; in experiment [2], 47 µM.
Turning to `COc1ccccc1C(ON=C1CC2CCC(C1)N2C)c1ccccc1` (stereo not drawn), the EC50 in experiment [1] is more than 10 µM; in experiment [2], more than 100 µM.
As for `CN1C2CCC1CC(=NOC(c1ccc(Cl)cc1)c1ccccn1)C2` (stereo not drawn), the EC50 was 2.9 µM in experiment [1] and more than 100 µM in experiment [2].
With `CCN(CC)CCCC(C)Nc1ccnc2cc(Cl)ccc12` (stereo not drawn) [CHLOROQUINE], in experiment [5], the midpoint of the response, the EC50, lay at 0.0094 µM.
Turning to `COc1ccc(C(ON=C2CC3CCC(C2)N3C)c2ccccc2)cc1` (stereo not drawn), the values for the EC50 in experiment [1] and in experiment [2] were 0.3 µM and more than 100 µM, respectively.
On the same counts, the results for `CN1C2CCC1CC(=NOC(c1ccccc1)c1ccccc1)C2` are 1.3 µM and more than 100 µM.
In the case of `CN1C2CCC1CC(=NOC(Cc1ccc(Cl)cc1)c1ccccc1)C2` (stereo not drawn), the results for the EC50 in experiment [1] and in experiment [2] were 1.9 µM and 49 µM, respectively.
Turning to `Cc1ccc(C(ON=C2CC3CCC(C2)N3C)c2ccccc2)cc1` (stereo not drawn), the EC50 in experiment [1] amounted to 0.3 µM; in experiment [2], 51 µM.
Compound `COc1cc([C@@H]2c3cc4c(cc3[C@H](O)[C@H]3COC(=O)[C@H]23)OCO4)cc(OC)c1OC` [PODOFILOX] yielded an EC50 in experiment [2] of 0.014 µM.
Consider `CN1C2CCC1CC(=NOC(CCc1ccccc1)c1ccc(Cl)cc1)C2` (stereo not drawn), for which the EC50 amounted to 6.5 µM in experiment [1] and 20 µM in experiment [2].
Turning to `Clc1ccc(C(ON=C2CCCCC2)c2ccccc2)cc1` (stereo not drawn), the EC50 in experiment [1] is more than 10 µM; in experiment [2], more than 100 µM.
Turning to `CN1C2CCC1CC(=NOC(c1ccccc1)c1ccc(C(F)(F)F)cc1)C2` (stereo not drawn), the values for the EC50 in experiment [1] and in experiment [2] were 0.03 µM and 35 µM, respectively. In experiment [7], the “Ratio EC50” value was more than 1000.
With `CN1C2CCC1CC(=NOC(c1ccccc1)c1cccc(Cl)c1)C2` (stereo not drawn), the EC50 in experiment [1] amounted to 2.1 µM; in experiment [2], 19 µM.
For `CN1C2CCC1CC(=NOC(c1ccccc1)c1ccc(Br)cc1)C2` (stereo not drawn), in that order: 0.04 µM and 40 µM.
`CN1C2CCC1CC(=NOC(c1ccncc1)c1ccc(Cl)cc1)C2` (stereo not drawn): the results for the EC50 in experiment [1] and in experiment [2] were 6.2 µM and more than 100 µM, respectively.
